# In patent US10323026B2, “Heterocyclic compound” (Takeda Pharmaceutical Company Limited, priority 2016, dated 2019):
# Biological target: T1, His-hMAGL (recombinant polyhistidine tagged human MAGL protein) (Homo sapiens, UniProt Q99685)
# T1 construct: polyhistidine (His) (N); made in house; host or cells: E. coli BL21(DE3)
# T1 sequence (Q99685 1-303): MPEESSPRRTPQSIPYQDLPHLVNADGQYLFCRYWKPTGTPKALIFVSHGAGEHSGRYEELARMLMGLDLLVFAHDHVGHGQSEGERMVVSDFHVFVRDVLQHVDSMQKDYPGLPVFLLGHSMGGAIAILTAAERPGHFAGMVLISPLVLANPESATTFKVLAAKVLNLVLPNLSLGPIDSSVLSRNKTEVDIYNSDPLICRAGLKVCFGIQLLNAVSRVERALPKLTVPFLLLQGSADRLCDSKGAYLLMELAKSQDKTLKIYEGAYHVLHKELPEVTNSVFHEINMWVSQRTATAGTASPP
# Assay: Measurement of MAGL inhibitory activity (RapidFire-mass spectrometry of arachidonic acid produced from 2-arachidonylglycerol)
# Type: biochemical
# Settings: test compound 10 μM; His-hMAGL; substrate 2-arachidonylglycerol; 60 min preincubation; 10 µM
# Protocol: Furthermore, acetonitrile (50 μL) containing 3 μM arachidonic acid-d8 (Cayman Chemical Company) was added and the mixture was stirred.
# The amount of arachidonic acid in the obtained enzyme reaction mixture was calculated by measuring by RapidFire-mass spectrometry and correcting by the amount of arachidonic acid-d8. High Throughput online solid phase extraction was performed using RapidFire 300™ system (Agilent Technologies, Inc.). Samples were loaded on SPE C4 cartridge (Agilent Technologies, Inc.) and desalted with 0.2 (v/v) % acetic acid (Wako Pure Chemical Industries, Ltd.) in ultrapure water/acetonitrile (70/30, v/v) at a flow rate of 1.5 mL/min, eluted at a flow rate of 0.5 mL/min with 0.2(v/v) % acetic acid dissolved in acetonitrile/ultrapure water (90/10, v/v), and injected into the mass spectrometry part. The injection needle was washed with ultrapure water (500 millisecond) and acetonitrile (500 millisecond) to minimize carry-over. […] The RapidFire300 system was controlled by RapidFire UI software version 3.6 (Agilent Technologies, Inc.).
# The mass spectrometry of the resultant product was performed using API4000™ triple quadrupole mass spectrometer (AB SCIEX) equipped with an electrospray ion source (TurboIon Spray™) in a negative selected reaction monitoring (SRM) mode. The conditions of SRM are shown below. The parameters of the instrument were optimized as follows: capillary temperature 600° C., ion spray voltage −4.5 kV, collision gas 8, curtain gas 15 psi, ion source gas 1 60 psi, ion source gas 2 60 psi. The mass spectrometer was controlled by Analyst™ software version 1.5.1 (AB SCIEX). The peak area integration was analyzed using RapidFire integrator software version 3.6 (Agilent Technologies, Inc.).
# MAGL inhibitory rate (%) was calculated according to the following calculation formula. (1-(arachidonic acid production amount of test compound addition group−arachidonic acid production amount of enzyme-free group)÷(arachidonic acid production amount of test compound-free group−arachidonic acid production amount of enzyme-free group))×100
row,% inhibition (10 μM),Compound
1,100%,"CC(Oc1c(F)ccc(F)c1F)C1CCN(C(=O)[C@H]2C[C@]3(COC(=O)N3)C2)CC1 (some centres unmarked) [Example 57, (2s,4s)-2-((4-(1-(2,3,6-trifluorophenoxy)ethyl)piperidin-1-yl)carbonyl)-7-oxa-5-azaspiro[3.4]octan-6-one]"
2,100%,"CC(Oc1ccc(Cl)cc1F)C1CCN(C(=O)[C@H]2C[C@]3(COC(=O)N3)C2)CC1 (some centres unmarked) [Example 32, (2s,4s)-2-((4-(1-(4-chloro-2-fluorophenoxy)ethyl)piperidin-1-yl)carbonyl)-7-oxa-5-azaspiro[3.4]octan-6-one]"
3,100%,"CC(Oc1cc(F)c(F)cc1F)C1CCN(C(=O)[C@H]2C[C@]3(COC(=O)N3)C2)CC1 (some centres unmarked) [Example 55, (2s,4s)-2-((4-(1-(2,4,5-trifluorophenoxy)ethyl)piperidin-1-yl)carbonyl)-7-oxa-5-azaspiro[3.4]octan-6-one]"

# Same assay, conditions: test compound 10 μM; His-hMAGL; substrate 2-arachidonylglycerol; 60 min preincubation; read-out: % inhibition (10 μM)
row,inhibition at 10 µM,Compound
1,100%,"O=C1N[C@]2(CO1)C[C@H](C(=O)N1CCC(C(F)(F)c3ccc(F)cc3Cl)CC1)C2 [Example 112, (2s,4s)-2-((4-((2-chloro-4-fluorophenyl)(difluoro)methyl)piperidin-1-yl)carbonyl)-7-oxa-5-azaspiro[3.4]actan-6-one]"
2,100%,"Cc1ccc(OC(C)C2CCN(C(=O)[C@H]3C[C@]4(COC(=O)N4)C3)CC2)c(F)c1 (some centres unmarked) [Example 28, (2s,4s)-2-((4-(1-(2-fluoro-4-methylphenoxy)ethyl)piperidin-1-yl)carbonyl)-7-oxa-5-azaspiro[3.4]octan-6-one]"
3,100%,"CC(Oc1ccc(F)cc1F)C1CCN(C(=O)[C@H]2C[C@]3(COC(=O)N3)C2)CC1 (some centres unmarked) [Example 15, (2s,4s)-2-((4-(1-(2,4-difluorophenoxy)ethyl)piperidin-1-yl)carbonyl)-7-oxa-5-azaspiro[3.4]octan-6-one]"
4,100%,"N#Cc1cc(C(F)(F)F)ccc1OCC1CCN(C(=O)[C@H]2C[C@]3(COC(=O)N3)C2)CC1 [Example 128, 2-((1-(((2s,4s)-6-oxo-7-oxa-5-azaspiro[3.4]oct-2-yl)carbonyl)piperidin-4-yl)methoxy)-5-(trifluoromethyl)benzonitrile]"
5,101%,"O=C1N[C@]2(CO1)C[C@H](C(=O)N1CCC(COc3ccc(N4CC(F)C4)cc3Cl)CC1)C2 [Example 49, (2s,4s)-2-((4-((2-chroro-4-(3-fluoroazetidin-1-yl)phenoxy)methyl)piperidin-1-yl)carbonyl)-7-oxa-5-azaspiro[3.4]octan-6-one]"
6,100%,"O=C1N[C@]2(CO1)C[C@H](C(=O)N1CCC3(CC1)CC(Oc1ccc(F)cc1Cl)C3)C2 [Example 62, (2s,4s)-2-((2-(2-chloro-4-fluorophenoxy)-7-azaspiro[3.5]non-7-yl)carbonyl)-7-oxa-5-azaspiro[3.4]octan-6-one]"
7,101%,"CC(Oc1c(F)ccc(F)c1F)C1CCN(C(=O)[C@H]2C[C@]3(COC(=O)N3)C2)CC1 (some centres unmarked) [Example 36, (2s,4s)-2-((4-(1-(2,3,6-trifluorophenoxy)ethyl)piperidin-1-yl)carbonyl)-7-oxa-5-azaspiro[3.4]octan-6-one]"
8,100%,"Cc1ccc(OCC2CCN(C(=O)[C@H]3C[C@]4(COC(=O)N4)C3)CC2)c(F)c1 [Example 23, (2s,4s)-2-((4-((2-fluoro-4-methylphenoxy)methyl)piperidin-1-yl)carbonyl)-7-oxa-5-azaspiro[3.4]octan-6-one]"
9,101%,"O=C1N[C@]2(CO1)C[C@H](C(=O)N1CCC(COc3ccc(C(F)(F)F)cc3F)CC1)C2 [Example 26, (2s,4s)-2-((4-((2-fluoro-4-(trifluoromethyl)phenoxy)methyl)piperidin-1-yl)carbonyl)-7-oxa-5-azaspiro[3.4]octan-6-one]"

# Further lines, the compound ahead of its results:
row,Compound,inhibition at 10 µM
1,"O=C1N[C@]2(CO1)C[C@H](C(=O)N1CCC(C3(C(F)(F)F)Cc4cc(F)ccc4O3)CC1)C2 (some centres unmarked) [Example 58, (2s,4s)-2-((4-(5-fluoro-2-(trifluoromethyl)-2,3-dihydro-1-benzofuran-2-yl)piperidin-1-yl)carbonyl)-7-oxa-5-azaspiro[3.4]octan-6-one]",100%
2,"CC1(C2CCN(C(=O)[C@H]3C[C@]4(COC(=O)N4)C3)CC2)Cc2cc(C(F)(F)F)ccc2O1 (some centres unmarked) [Example 53, (2s,4s)-2-((4-(2-methyl-5-(trifluoromethyl)-2,3-dihydro-1-benzofuran-2-yl)piperidin-1-yl)carbonyl)-7-oxa-5-azaspiro[3.4]octan-6-one]",101%
3,"O=C1N[C@]2(CO1)C[C@H](C(=O)N1CC(CC(F)(F)c3ccc(C(F)(F)F)c(F)c3F)C1)C2 [Example 103, (2s,4s)-2-((3-(2-(2,3-difluoro-4-(trifluoromethyl)phenyl)-2,2-difluoroethyl)azetidin-1-yl)carbonyl)-7-oxa-5-azaspiro[3.4]octan-6-one]",100%
4,"Cc1ccc(COC2CN(C(=O)[C@H]3C[C@@]4(COC(=O)N4)C3)C2)cc1Cl [Example 123, (2r,4r)-2-((3-((3-chloro-4-methylbenzyl)oxy)azetidin-1-yl)carbonyl)-7-oxa-5-azaspiro[3.4]octan-6-one]",99%
5,"CC1(C2CCN(C(=O)[C@H]3C[C@]4(COC(=O)N4)C3)CC2)Cc2cc(F)cc(Cl)c2O1 (some centres unmarked) [Example 27, (2s,4s)-2-((4-(7-chloro-5-fluoro-2-methyl-2,3-dihydro-1-benzofuran-2-yl)piperidin-1-yl)carbonyl)-7-oxa-5-azaspiro[3.4]octan-6-one]",101%
6,"O=C1N[C@]2(CO1)C[C@H](C(=O)N1CC(OCc3ccc(C(F)(F)F)c(F)c3F)C1)C2 [Example 96, (2s,4s)-2-((3-((2,3-difluoro-4-(trifluoromethyl)benzyl)oxy)azetidin-1-yl)carbonyl)-7-oxa-5-azaspiro[3.4]octan-6-one]",100%
7,"Cc1ccc(C(F)(F)CC2CN(C(=O)[C@H]3C[C@]4(COC(=O)N4)C3)C2)cc1Cl [Example 109, (2s,4s)-2-((3-(2-(3-chloro-4-methylphenyl)-2,2-difluoroethyl)azetidin-1-yl)carbonyl)-7-oxa-5-azaspiro[3.4]octan-6-one]",99%
8,"Cc1ccc(COC2CN(C(=O)[C@H]3C[C@]4(COC(=O)N4)C3)C2)c(F)c1F [Example 94, (2s,4s)-2-((3-((2,3-difluoro-4-methylbenzyl)oxy)azetidin-1-yl)carbonyl)-7-oxa-5-azaspiro[3.4]octan-6-one]",100%
9,"Cc1cc(COCC2CN(C(=O)[C@H]3C[C@]4(COC(=O)N4)C3)C2)ccc1Cl [Example 121, (2s,4s)-2-((3-(((4-chloro-3-methylbenzyl)oxy)methyl)azetidin-1-yl)carbonyl)-7-oxa-5-azaspiro[3.4]octan-6-one]",101%
10,"O=C1N[C@]2(CO1)C[C@H](C(=O)N1CC(CC(F)(F)c3ccc(F)c(C(F)(F)F)c3)C1)C2 [Example 100, (2s,4s)-2-((3-(2,2-difluoro-2-(4-fluoro-3-(trifluoromethyl)phenyl)ethyl)azetidin-1-yl)carbonyl)-7-oxa-5-azaspiro[3.4]octan-6-one]",100%
11,"CC1(C2CCN(C(=O)[C@H]3C[C@]4(COC(=O)N4)C3)CC2)Cc2ccc(C(F)(F)F)cc2O1 (some centres unmarked) [Example 63, (2s,4s)-2-((4-(2-methyl-6-(trifluoromethyl)-2,3-dihydro-1-benzofuran-2-yl)piperidin-1-yl)carbonyl)-7-oxa-5-azaspiro[3.4]octan-6-one]",100%
